From patent US20100204152A1, “USE OF GLUTEN EXORPHIN C : AS A THERAPEUTIC AGENT” (priority 2007, published 2010)
Where no end group is shown, it is not given here.

Tests used:
[1] = tested on: hepatitis B virus (HBV) ayw strain in HepG2-2.2.15 cells; test: HBV experimental assay system (secreted HBV DNA, TaqMan PCR); assay type: cell-based; settings: 10 micrograms per ml, six days, HBV DNA by TaqMan PCR
Description: HepG2-2.2.15 is a stable cell line containing the hepatitis B virus (HBV) ayw strain genome (ATCC Cat. No. CRL-11997). Antiviral compounds blocking any late step of viral replication such as transcription, translation, pregenome encapsidation, reverse transcription, particle assembly and release can be identified and characterized using this cell line. In this assay, an active compound will reduce the production of secreted HBV from cells, measured by utilizing real time quantitative PCR (TaqMan) assay to directly and accurately measure HBV DNA copies.
HepG2-2.2.15 cells were plated in 96-well microtiter plates. After 16-24 hours the confluent monolayer of HepG2-2.2.15 cells was washed and the medium was replaced with complete medium containing test peptides—10 micrograms per ml—in duplicate. […] Six days following the initial administration of the peptides, the cell culture supernatants was collected, treated with pronase and DNAse and then used in a real-time quantitative TaqMan PCR assay. The PCR-amplified HBV DNA was detected in real-time by monitoring increases in fluorescence signals that result from the exonucleolytic degradation of a quenched fluorescence probe molecule that hybridizes to the amplified HBV DNA. […] Antiviral activity was calculated from the reduction in HBV DNA levels (% virus control). […]

[2] = tested on: RAW 264.7 cells; test: Phagocytosis assay; assay type: cell-based, mouse; settings: 10 micrograms per ml, Fluorescein-labeled Escherichia coli, flow cytometry
[3] = tested on: spleen cells; test: Th1/Th2 cytokine profiling assay; assay type: cell-based, Balb/c mice; settings: 10 micrograms per ml; Ovalbumin restimulation; 72 hours; supernatant
Description: The Balb/c mice (originated in 1923, it is a popular strain and is used in many different research disciplines. Also classified as an inbred from the production of 20 or more successive brother-sister matings, the Balb/c mouse is albino and small in size) were immunized on Days 1, 15, and 29 with Ovalbumin (Ovalbumin is the main protein found in egg white, commonly used to stimulate an immunological reaction in test animals) in PBS (5 micrograms/injection). On day 50, spleens of the mice were harvested (3 weeks after last boost with Ovalbumin). Cells were cultured (2×10^5/well in triplicate) and incubated with culture medium or test peptides—10 micrograms per ml—for 30 min. Thereafter, additional Ovalbumin was added to the cells at 10 micrograms/ml for in vitro restimulation of the cells. 72 hours later, cell supernatants were harvested and assayed using the Becton Dickinson Mouse Th1/Th2 Cytokine CBA Kit. This kit can be used to measure Interleukin-2 (IL-2), Interleukin-4 (IL-4), Interleukin-5 (IL-5), Interferon-γ (IFN-γ), and Tumor Necrosis Factor-α (TNF-α) protein levels in a single sample. The kit performance has been optimized for analysis of physiologically relevant concentrations (pg/ml levels) of specific cytokine proteins in tissue culture supernatants and serum samples.

[4] = tested on: LPS-induced TNF-alpha production in human macrophages; test: TNF alpha production assay; assay type: cell-based; settings: 10 micrograms per ml; 30 min preincubation; lipopolysaccharide 200 ng/ml; overnight; ELISA
Description: Not stimulated macrophages served as negative background control.

[5] = tested on: HUVEC; test: Endothelial tube formation assay; assay type: cell-based, human; settings: 10 micrograms per ml, 20 hours, average tubule length
Description: Positive control was vehicle only.

[6] = tested on: HCMV strain AD169; test: HCMV plaque formation assay in MRC-5 cells; settings: for inhibition of HCMV plaque formation as compared to the virus control: 10 micrograms per ml, 7-10 days
[7] = tested on: Primary Human endothelial cells (HUVEC); test: Endothelial cell migration assay; assay type: cell-based; settings: 10 micrograms per ml, 22 hours
Protocol: Thereafter, designated concentration of testing peptides—10 micrograms per ml—was added in duplicate wells.

Row | Compound | inhibition of HBV replication as compared to the virus control infection [1] | effect on the phagocytic activity of murine macrophages (increase) [2] | IFNγ spleen cells; TH1 response (% of control) [3] | IL-2 spleen cells (% of control) [3] | IL-4 spleen cells; TH2 response (% of control) [3] | IL-5 spleen cells; TH2 response (% of control) [3] | TNF-a spleen cells; TH1 response (% of control) [3] | inhibition of the LPS-induced TNF-alpha production in human macrophages [4] | inhibition of the tube formation of endothelial cells [5] [%] | inhibition of HCMV plaque formation as compared to the virus control [6] | antiviral activity of positive control compound (HCMV) ([6]; positive control) | inhibition of the migration of human endothelial cells [7] [%]
1 | Tyr-Pro-Ile-Ser-Leu-OH (YPISL-OH) [peptide 2] | 41.4% | no inhibitory or activating effect | 53.9 % of control | 124.0 % of control | 94.1 % of control | 86.6 % of control | 126.2 % of control | did not induced or inhibit | 100 | did not inhibit | – | –
2 | Nc1nc(O)c2ncn(COC(CO)CO)c2n1 [Ganciclovir, reference compound] | – | – | – | – | – | – | – | – | – | – | expected levels of antiviral activity | –
3 | AVPYPQR [peptide 1] | no effect | 22.9% | 52.4 % of control | 55.7 % of control | 0.0 % of control | 53.0 % of control | 86.6 % of control | 22.4% | 18 | did not inhibit | – | 35
